Test results: patent publication EP3570868B1, “[…] ANTIMICROBIAL PEPTIDES AND THEIR APPLICATIONS FOR THE TREATMENT AND PREVENTION OF MUSCU[…]” (Ustav Organicke Chemie a Biochemie AV CR, v.v.i., priority 2017, dated 2018)
Peptide text beside a SMILES is read from it.

What was measured:
P.a. 5482 = assay type: cell-based, Pseudomonas aeruginosa; settings: 37° C for 20 h
Experimental: (§1) Gram-positive bacteria (Bacillus subtilis, Staphylococcus aureus, Staphylococcus epidermidis and Enterococcus faecalis), Gram-negative bacteria (Escherichia coli and Pseudomonas aeruginosa) and the yeast (Candida albicans) were grown to exponential phase and then were diluted with fresh medium. BHI medium (Oxoid, Great Britain) was used for Enterococcus faecalis; YPD medium containing yeast extract, peptone and glucose was used for Candida albicans and LB medium (Sigma, Czech Republic) was used for the remaining microorganisms. Then the microorganisms were added to the solutions of the tested antimicrobial peptides in LB medium in multi-well plates, so that the final peptide concentration it the wells was in the range of 0.5 to 100 µmοl.1^-1. The plates were incubated at 37° C for 20 h while being continuously shaken in a Bioscreen C (Oy Growth Curves AB Ltd., Helsinki, Finland). Absorbance was measured at 540 nm every 15 min. Antimicrobial activity (Table 2) was determined as a quantitative minimum inhibitory concentration (MIC) by observing bacterial growth in the presence of different concentrations of tested peptides. In the experiments, ca 10^5 CFU of bacteria or candida per well were used. Tetracycline in a concentration range of 0.5 - 100 µmol.1^-1 was used as a standard.
(§2) Clinical isolates of bacteria were obtained from University Hospital in Motol, Prague, Czech Republic and from Liberec Regional Hospital, Czech Republic. Methicillin resistant Staphylococcus aureus (MRSA) 6271 and Pseudomonas aeruginosa 5482 were from the Czech National Collection of Type Cultures, the National Institute of Public Health, Prague, Czech Republic. Other bacteria were from the Czech Collection of Microorganisms, Brno, Czech Republic. Candida albicans came from the Faculty of Medicine, Palacky University, Olomouc, Czech Republic. Candida tropicalis ATCC 750 and Candida glabrata DSY 565 were obtained from the Institute of Physiology, Academy of Sciences of the Czech Republic.

[1] = system: P.a. (clin. isolate Liberec); assay type: cell-based, Pseudomonas aeruginosa; settings: 37° C for 20 h
Experimental: as §1, §2

[2] = system: MRSA (clin. isolate Motol); assay type: cell-based, Staphylococcus aureus; settings: 37° C for 20 h
Experimental: as §1, §2

MRSA 6271 [3] = assay type: cell-based, Staphylococcus aureus; settings: 37° C for 20 h
Experimental: as §1, §2

[4] = system: MRSA (clin. isolate Liberec); assay type: cell-based, Staphylococcus aureus; settings: 37° C for 20 h
Experimental: as §1, §2

MRSA 6271 [5] = experiment: Induced osteomyelitis model in femur heads: effect of peptides released from carrier on infection in the bone graft; assay type: cell-based, Staphylococcus aureus; settings: ChronOS (200 mg), two days, carrier without peptide 7,0x10^7
Experimental: (§3) 3-4 holes of a diameter of 5 mm and a depth of 10 mm are drilled with a surgical spoon into a femur head under sterile conditions (spongy part of the bone in the resection site). Thereafter, this bone graft is put into a beaker of appropriate size and lined with sterile gauze squares. The gauze is moistened with sterile physiological saline to prevent drying of the bone. Then, suspension of multiplied microbes in an appropriate medium (50-100 µl) at a concentration of 10^7 to 10^9 CFU is sequentially applied to the prepared holes in the bone graft and allowed to incubate for 1-2 days. […] Beaker with the infected bone graft is covered with a sterile Petri dish. During the experiment, induced osteomyelitis models are kept protected from light at room temperature.
(§4) After the incubation, the infected holes in the bone are filled with a mixture of the local carrier, and a peptide selected from the series of peptides of formulae I to XIII or their specific enantiomers (Figure 1). For comparison, one of the holes is filled with the local carrier without peptide, or the carrier filled with antibiotic (vancomycin or gentamicin). A commercially available two-component material supplied by Synthes (Synthes GmbH, Switzerland) under the name ChronOS Inject was used as the carrier. Its solid component comprises a mixture of calcium phosphates CaHPO4.2H2O and Ca3(PO4)2 and additives, the liquid component is 0.5% (vol./vol.) solution of hyaluronic acid.
(§5) After two days, the filling is thoroughly removed with a surgical spoon and empty holes are wiped with moistened sterile cotton swab, which is then extracted into 400 µl physiological saline. The extract is diluted in a tenfold serial dilution and each diluted suspension is cultured on agar in Petri dishes; the culture is evaluated on the following day. […] The result of the peptide effect is also compared with the result of the effect of antibiotics. In some cases, microbiological examination of the bone tissue taken with a surgical spoon from a deeper area of the drilled holes is performed. […] Table 3. Evaluation of the effect of antimicrobial peptides released from the carrier on an infection in the bone graft. Effect of antimicrobial activity is expressed in the number of CFU (colony-forming units) in the infected hole after swabbing.

[6] = system: MRSA (clin. isolate Liberec); experiment: as above; assay type: cell-based, Staphylococcus aureus; settings: ChronOS (200 mg); 10 mg, separate holes; two days; carrier without peptide 3,4x10^7
Experimental: as §3, §4, §5

[7] = system: Candida albicans (clin. isolate Olomouc); experiment: Biofilm formation on the surface of a bone cement implant in femur heads; assay type: cell-based; settings: two days, cement without peptide 6.0x10^3
Experimental: (§6) The resulting elastic paste is placed into a 2 ml plastic syringe (without needle) and pressed into the infected holes in the spongy part of the bone, where it polymerizes and hardens. For comparison, other similarly infected holes are filled with cement containing only an antibiotic or antimycotic agent. For comparison, a Vancogenx® cement (Tecresa S. p. A., Italy) is used, made from a mixture of a powdered polymer component containing vancomycin and gentamicin. The mixture in an amount of 125 mg is mixed with liquid monomer (50-60 µl) and then pressed into the openings as described above. In another embodiment, the cements are applied to uninfected holes, allowed to harden, and then microbes are pipetted into the hole excavated between implants. From there they penetrate through bone tissue and settle on the implants with consequent formation of biofilms.
(§7) After two days, implants are removed with metal spikes and tweezers, mechanically cleaned from debris of bone tissue, and washed four times with physiological saline (0.5 ml) in plastic tubes to remove any residual planktonic microbes or bone cells from their surface. The implants in closed tubes with 0.4 ml saline are then sonicated four times for 3 min with occasional shaking. The of microbial biofilm on the surface of the implant is thus disrupted and microbes are loosed into the physiological saline. The resulting suspension is subsequently diluted using the tenfold serial dilution for culturing on agar.
(§8) Evaluation of the effect of antimicrobial peptides on the formation of microbial biofilm on the surface of the implant made of the bone cement.

[8] = system: Candida tropicalis ATCC 750; experiment: as above; assay type: cell-based; settings: two days, cement without peptide 3.7x10^5
Experimental: (§9) The resulting elastic paste is placed into a 2 ml plastic syringe (without needle) and pressed into the infected holes in the spongy part of the bone, where it polymerizes and hardens. For comparison, other similarly infected holes are filled with cement containing only an antibiotic or antimycotic agent. […] The mixture in an amount of 125 mg is mixed with liquid monomer (50-60 µl) and then pressed into the openings as described above. In another embodiment, the cements are applied to uninfected holes, allowed to harden, and then microbes are pipetted into the hole excavated between implants. From there they penetrate through bone tissue and settle on the implants with consequent formation of biofilms.
(§10) After two days, implants are removed with metal spikes and tweezers, mechanically cleaned from debris of bone tissue, and washed four times with physiological saline (0.5 ml) in plastic tubes to remove any residual planktonic microbes or bone cells from their surface. The implants in closed tubes with 0.4 ml saline are then sonicated four times for 3 min with occasional shaking. The of microbial biofilm on the surface of the implant is thus disrupted and microbes are loosed into the physiological saline. The resulting suspension is subsequently diluted using the tenfold serial dilution for culturing on agar. […]

[9] = system: Enterococcus faecalis (clin. isolate Motol); experiment: as above; assay type: cell-based; settings: two days
Experimental: as §6
(§11) After two days, implants are removed with metal spikes and tweezers, mechanically cleaned from debris of bone tissue, and washed four times with physiological saline (0.5 ml) in plastic tubes to remove any residual planktonic microbes or bone cells from their surface. The implants in closed tubes with 0.4 ml saline are then sonicated four times for 3 min with occasional shaking. The of microbial biofilm on the surface of the implant is thus disrupted and microbes are loosed into the physiological saline. […]

[10] = system: P. aeruginosa (clin. isolate Liberec); experiment: as above; assay type: cell-based; settings: two days, cement without peptide N/A
Experimental: as §9, §10

Escherichia coli = assay type: cell-based; settings: E.c.; 37° C for 20 h
Experimental: as §1, §2

Candida albicans = assay type: cell-based; settings: C.a.; 37° C for 20 h
Experimental: as §1, §2

Bacillus subtilis = assay type: cell-based; settings: B.s.; 37° C for 20 h
Experimental: as §1, §2

P. aeruginosa 5482 = experiment: Biofilm formation on the surface of a bone cement implant in femur heads; assay type: cell-based; settings: two days
Experimental: as §9, §10

[11] = system: E.f. (clin. isolate Motol); assay type: cell-based, Enterococcus faecalis; settings: 37° C for 20 h
Experimental: as §1, §2

[12] = system: S.e. (clin. isolate Motol); assay type: cell-based, Staphylococcus epidermidis; settings: 37° C for 20 h
Experimental: as §1, §2

[13] = system: MRSA (clin. isolate Motol); experiment: Biofilm formation on the surface of a bone cement implant in femur heads; assay type: cell-based, Staphylococcus aureus; settings: two days
Experimental: as §6, §11

MRSA 6271 [14] = experiment: as above; assay type: cell-based, Staphylococcus aureus; settings: two days
Experimental: as §6, §7, §8

[15] = system: S. epidermidis (clin. isolate Motol); experiment: Induced osteomyelitis model in femur heads: effect of peptides released from carrier on infection in the bone graft; assay type: cell-based; settings: ChronOS (300 mg); 10 mg, separate holes; two days; carrier without peptide 1,2x10^5
Experimental: as §3, §4, §5

human red blood cells = experiment: Determination of haemolytic activity; assay type: cell-based; settings: human red blood cells (5% v/v), 1 h at 37 °C; concentration for lysis of 50% of erythrocytes
Experimental: The peptides in the concentrations 2-400 µmol.1^-1 were incubated with the suspension of human red blood cells (5% v/v) for 1 h at 37 °C in a physiological solution at a final volume of 0.2 ml. The samples were then centrifuged for 5 min at 250 g. The absorbance of the supernatant was determined at 540 nm. 0.2% (v/v) TRITON X100 was used as a control for 100% haemolysis. Haemolytic activity is expressed as the peptide concentration required for lysis of 50% of human erythrocytes in the assay (LC50). Table 2. Antimicrobial and haemolytic activity of I up to XIII peptides and tetracycline.

[16] = system: MRSA (clin. isolate Liberec); experiment: Biofilm formation on the surface of a bone cement implant in femur heads; assay type: cell-based, Staphylococcus aureus; settings: two days, cement without peptide 8,8x10^3
Experimental: as §6, §11

[17] = system: S. epidermidis (clin. isolate Motol); experiment: as above; assay type: cell-based; settings: two days, cement without peptide 4.0x10^6
Experimental: as §9, §10

[18] = system: S. aureus (clin. isolate Liberec); experiment: Induced osteomyelitis model in femur heads: effect of peptides released from carrier on infection in the bone graft; assay type: cell-based; settings: ChronOS (200 mg); 10 mg, separate holes; two days; carrier without peptide 3,9x10^6
Experimental: as §3, §4, §5

[19] = cement without peptide 2.8x10^6

Compound: CC[C@H](C)[C@H](NC(=O)[C@H](CCCCN)NC(=O)[C@H](CCCCN)NC(=O)[C@H](CC(C)C)NC(=O)[C@H](CC(C)C)NC(=O)[C@H](CCCCN)NC(=O)[C@H](CCSC)NC(=O)[C@H](Cc1c[nH]c2ccccc12)NC(=O)[C@H](CCCCN)NC(=O)CN)C(=O)N[C@@H](CC(C)C)C(=O)N[C@@H](CCCCN)C(N)=O [III]
- Antimicrobial activity MIC (P.a. 5482): 2,8 µmol.l^-1
- Antimicrobial activity MIC [1]: 10,0 µmol.l^-1
- Antimicrobial activity MIC [2]: 5,7 µmol.l^-1
- Antimicrobial activity MIC (MRSA 6271 [3]): 6,3 µmol.l^-1
- Antimicrobial activity MIC [4]: 3,6 µmol.l^-1
- CFU/hole (MRSA 6271 [5]; III (5 mg)): 1,9x10^2 CFU/hole
- CFU/hole (MRSA 6271 [5]; III (10 mg)): 7,6x10^2 CFU/hole
- CFU/hole [6]: 2,3x10^5 / 2,3x10^5 CFU/hole
- CFU/implant [7]: 2 CFU/implant
- CFU/implant [8]: 0 CFU/implant
- CFU/implant [9, 19]: 0 CFU/implant
- CFU/implant ([9]; cement without peptide 2.9x10^5): 0 CFU/implant
- CFU/implant [10]: 1.1x10^3 CFU/implant
- Antimicrobial activity MIC (Escherichia coli): 9,0 µmol.l^-1
- Antimicrobial activity MIC (Candida albicans): 5,7 µmol.l^-1
- Antimicrobial activity MIC (Bacillus subtilis): 1,8 µmol.l^-1
- CFU/implant (P. aeruginosa 5482; [19]): 2.6x10^1 CFU/implant
- Antimicrobial activity MIC [11]: 13,3 µmol.l^-1
- Antimicrobial activity MIC [12]: 2,3 µmol.l^-1
- CFU/implant ([13]; cement without peptide 3,4x10^5): 0 CFU/implant
- CFU/implant (MRSA 6271 [14]; cement without peptide N/A, first experiment with III): 5.1 x 10^3 CFU/implant
- CFU/implant (MRSA 6271 [14]; cement without peptide N/A, second experiment with III): 0 CFU/implant
- CFU/hole [15]: 0 in all cases CFU/hole
- Hemolytic activity LC50 (human red blood cells): 339 µM

Compound: CC[C@H](C)[C@H](NC(=O)[C@H](CCCCN)NC(=O)[C@H](CCCCN)NC(=O)[C@H](CC(C)C)NC(=O)[C@H](CC(C)C)NC(=O)[C@H](CCCCN)NC(=O)[C@H](CCSC)NC(=O)[C@H](Cc1c[nH]c2ccccc12)NC(=O)[C@@H](N)CCCCN)C(=O)N[C@@H](CC(C)C)C(=O)N[C@@H](CCCCN)C(N)=O [I] (H-KWMKLLKKILK-NH2)
- Antimicrobial activity MIC (P.a. 5482): 2,9 µmol.l^-1
- Antimicrobial activity MIC [1]: 5,8 µmol.l^-1
- Antimicrobial activity MIC [2]: 17,7 µmol.l^-1
- Antimicrobial activity MIC (MRSA 6271 [3]): 13,5 µmol.l^-1
- Antimicrobial activity MIC [4]: 8,0 µmol.l^-1
- CFU/implant [16]: 0 CFU/implant
- CFU/hole [6]: 2,3x10^5 / 2,3x10^5 CFU/hole
- CFU/implant [7]: 6.8x10^1 CFU/implant
- Antimicrobial activity MIC (Escherichia coli): 12,7 µmol.l^-1
- Antimicrobial activity MIC (Candida albicans): 9,5 µmol.l^-1
- Antimicrobial activity MIC (Bacillus subtilis): 2,3 µmol.l^-1
- CFU/implant (P. aeruginosa 5482; cement without peptide 6x10^5): 7.0x10^2 CFU/implant
- Antimicrobial activity MIC [11]: >100 µmol/L
- Antimicrobial activity MIC [12]: 3,2 µmol.l^-1
- CFU/implant ([13]; cement without peptide 2,6x10^6): 0 CFU/implant
- CFU/implant (MRSA 6271 [14]; cement without peptide 1.1x10^6): 0 CFU/implant
- CFU/implant [17]: 1,1x10^3 CFU/implant
- CFU/hole [18]: 1,3x10^4 CFU/hole
- Hemolytic activity LC50 (human red blood cells): >400 µM
